Experimental data from PubChem BioAssay AID1259411 (Chemical Carcinogenesis Research Information System (CCRIS), 2018).
The source made the active and inactive calls. The rule behind the calls is not given here.

Tested on: rodent carcinogenicity bioassays, tumor incidence
Assay: CCRIS carcinogenicity studies
Summary of the method: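 NCI-built, expert-reviewed records of carcinogenicity and related test outcomes (mutagenicity, tumor promotion/inhibition) compiled from published and report sources, historical span 1985-2011, not updated.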

Compound: C=COC(N)=O
- carcinogen call (Species: MOUSE, Strain/Sex: B6C3F1/MALE, Route: INTRAPERITONEAL, Dose: 0, 2.5 UG/G BW IN 10 µL TRIOCTANOIN ONCE (STUDY DURATION: 9 MO), Tumor Site: Type of Lesion: LIVER: HEPATOMA): active; positive
- carcinogen call (Species: MOUSE, Strain/Sex: CD-1/FEMALE, Route: DERMAL, Dose: 0, 11.5 UMOL IN WEEKS 1 AND 2 THEN 5.7 UMOL IN WEEKS 3 AND 4 FOLLOWED BY 3.8 UMOL/WK FOR 28 WK (STUDY DURATION: 42 WK), Tumor Site: Type of Lesion: SKIN: PAPILLOMA, CARCINOMA): active; positive
- carcinogen call (Species: MOUSE, Strain/Sex: STRAIN-A/FEMALE, Route: INTRAPERITONEAL, Dose: 0, 34, 68 NMOL/G BW IN 5 µL TRIOCTANOIN ONCE (STUDY DURATION: 6 MO), Dose: 0, 34, 68 NMOL/G BW IN 5 µL TRIOCTANOIN ONCE (STUDY DURATION: 6 MO), Tumor Site: Type of Lesion: LUNG: ADENOMA): active; positive
- carcinogen call (Species: RAT, Strain/Sex: SPRAGUE-DAWLEY/FEMALE, Route: INTRAMUSCULAR, Dose: 0, 1.15, 2.3 UMOL IN 0.25 ML TRIOCTANOIN 1/WK FOR 10 WK (STUDY DURATION: 18 MO), Dose: 0, 1.15, 2.3 UMOL IN 0.25 ML TRIOCTANOIN 1/WK FOR 10 WK (STUDY DURATION: 18 MO)): inactive; negative

Compound: C[C@]12CC[C@@H]3c4ccc(O)cc4CC[C@H]3[C@@H]1CC[C@@H]2O
- carcinogen call (Species: GUINEA PIG, Route: SUBCUTANEOUS IMPLANT, Tumor Site: Type of Lesion: UTERUS): active; positive
- carcinogen call (Species: HAMSTER, Route: SUBCUTANEOUS IMPLANT, Tumor Site: Type of Lesion: KIDNEY): active; positive
- carcinogen call (Species: HAMSTER, Strain/Sex: SYRIAN/MALE, Route: SUBCUTANEOUS IMPLANT, Dose: 0, 20 MG IN PELLETS IMPLANTED EVERY 2.5 MO FOR 9 MO (STUDY DURATION: 9 MO), Tumor Site: Type of Lesion: KIDNEY: TUMOR): active; positive
- carcinogen call (Species: MOUSE, Route: ORAL, SUBCUTANEOUS IMPLANT, Tumor Site: Type of Lesion: CERVIX, THYMUS GLAND, MAMMARY GLAND, UTERUS, VAGINA, Tumor Site: Type of Lesion: CERVIX, THYMUS GLAND, MAMMARY GLAND, UTERUS, VAGINA): active; positive
- carcinogen call (Species: MOUSE, Route: SUBCUTANEOUS, Tumor Site: Type of Lesion: LYMPHATIC SYSTEM): active; positive
- carcinogen call (Species: MOUSE, Strain/Sex: BALB/CCRGL/FEMALE, Route: SUBCUTANEOUS, Dose: 5 UG DAILY FOR 5 D BEGINNING 16 HR AFTER BIRTH (STUDY DURATION: 20 MO), Tumor Site: Type of Lesion: CERVICOVAGINAL TRACT: CARCINOMA (16/37)): active; positive
- carcinogen call (Species: RAT, Route: SUBCUTANEOUS IMPLANT, Tumor Site: Type of Lesion: MAMMARY GLAND, PITUITARY GLAND): active; positive

Compound: c1ccc2ccccc2c1
- carcinogen call (Species: MOUSE, Strain/Sex: B6C3F1/FEMALE, Route: INHALATION, Dose: 0, 10, 30 PPM 6 HR/D 5 D/WK FOR 104 WK (STUDY DURATION: 104 WK), Dose: 0, 10, 30 PPM 6 HR/D 5 D/WK FOR 104 WK (STUDY DURATION: 104 WK), Tumor Site: Type of Lesion: LUNG: ALVEOLAR/BRONCHIOLAR ADENOMA OR CARCINOMA): active; positive
- carcinogen call (Species: MOUSE, Strain/Sex: B6C3F1/MALE, Route: INHALATION, Dose: 0, 10, 30 PPM 6 HR/D 5 D/WK FOR 104 WK (STUDY DURATION: 104 WK), Dose: 0, 10, 30 PPM 6 HR/D 5 D/WK FOR 104 WK (STUDY DURATION: 104 WK)): inactive; negative
- carcinogen call (Species: MOUSE, Strain/Sex: CD-1/FEMALE, Route: INTRAPERITONEAL, Dose: 0, 0.25, 0.5, 1.0 UMOL IN DMSO TO NEWBORN MICE ON DAY 1, 8 AND 15 OF LIFE RESPECTIVELY (TOTAL DOSE: 1.75 UMOL) (STUDY DU, Dose: 0, 0.25, 0.5, 1.0 UMOL IN DMSO TO NEWBORN MICE ON DAY 1, 8 AND 15 OF LIFE RESPECTIVELY (TOTAL DOSE: 1.75 UMOL) (STUDY DU): inactive; negative
- carcinogen call (Species: MOUSE, Strain/Sex: CD-1/MALE, Route: INTRAPERITONEAL, Dose: 0, 0.25, O.5, 1.0 UMOL IN DMSO TO NEWBORN MICE ON DAY 1,8 AND 15 OF LIFE RESPECTIVELY (TOTAL DOSE: 1.75 UMOL) (STUDY DUR, Dose: 0, 0.25, O.5, 1.0 UMOL IN DMSO TO NEWBORN MICE ON DAY 1,8 AND 15 OF LIFE RESPECTIVELY (TOTAL DOSE: 1.75 UMOL) (STUDY DUR): inactive; negative
- carcinogen call (Species: RAT, Strain/Sex: F344/N/FEMALE, Route: INHALATION, Dose: 0, 10, 30, 60 PPM 6 HR/D 5 D/WK FOR 105 WK (STUDY DURATION: 105 WK), Dose: 0, 10, 30, 60 PPM 6 HR/D 5 D/WK FOR 105 WK (STUDY DURATION: 105 WK), Tumor Site: Type of Lesion: NOSE: NEUROBLASTOMA): active; positive
- carcinogen call (Species: RAT, Strain/Sex: F344/N/MALE, Route: INHALATION, Dose: 0, 10, 30, 60 PPM 6 HR/D 5 D/WK FOR 105 WK (STUDY DURATION: 105 WK), Dose: 0, 10, 30, 60 PPM 6 HR/D 5 D/WK FOR 105 WK (STUDY DURATION: 105 WK), Tumor Site: Type of Lesion: NOSE: ADENOMA): active; positive

Compound: CC(=O)N(C)C
- carcinogen call (Species: MOUSE, Strain/Sex: CRL:CD-1 (ICR)BR/FEMALE, Route: INHALATION, Dose: 0, 25, 100, 350 PPM 6 HR/D 5 D/WK FOR 18 MO (STUDY DURATION: 18 MO), Dose: 0, 25, 100, 350 PPM 6 HR/D 5 D/WK FOR 18 MO (STUDY DURATION: 18 MO)): inactive; negative
- carcinogen call (Species: MOUSE, Strain/Sex: CRL:CD-1 (ICR)BR/MALE, Route: INHALATION, Dose: 0, 25, 100, 350 PPM 6 HR/D 5 D/WK FOR 18 MO (STUDY DURATION: 18 MO), Dose: 0, 25, 100, 350 PPM 6 HR/D 5 D/WK FOR 18 MO (STUDY DURATION: 18 MO)): inactive; negative
- carcinogen call (Species: RAT, Strain/Sex: CRL:CD BR/FEMALE, Route: INHALATION, Dose: 0, 25, 100, 350 PPM 6 HR/D 5 D/WK FOR 2 YR (STUDY DURATION: 2 YR), Dose: 0, 25, 100, 350 PPM 6 HR/D 5 D/WK FOR 2 YR (STUDY DURATION: 2 YR)): inactive; negative
- carcinogen call (Species: RAT, Strain/Sex: CRL:CD BR/MALE, Route: INHALATION, Dose: 0, 25, 100, 350 PPM 6 HR/D 5 D/WK FOR 2 YR (STUDY DURATION: 2 YR), Dose: 0, 25, 100, 350 PPM 6 HR/D 5 D/WK FOR 2 YR (STUDY DURATION: 2 YR)): inactive; negative

Compound: CNC(=O)Oc1cccc2ccccc12
- carcinogen call (Species: MOUSE, Strain/Sex: SWISS/FEMALE, Route: DERMAL, Dose: 0, 100 MG/KG IN 100 µL ACETONE 3/WK FOR 52 WK (STUDY DURATION: 52 WK)): inactive; negative
- carcinogen call (Species: Mouse, Strain/Sex: CD-1/Female (70/group), Route: Oral, Dose: 0, 100, 1,000, 8,000 ppm in feed for 104 wk, Dose: 0, 100, 1,000, 8,000 ppm in feed for 104 wk, Tumor Site: Type of Lesion: BLOOD VESSELS: Hemangiosarcoma and hemangioma (high dose only). LIVER: Hepatocellular adenoma and carcinoma (high dose o): active; positive (purity 99.3%; study details not given in source; mtd may have been exc
- carcinogen call (Species: Mouse, Strain/Sex: CD-1/Male (70/group), Route: Oral, Dose: 0, 100, 1,000, 8,000 ppm in feed for 104 wk, Dose: 0, 100, 1,000, 8,000 ppm in feed for 104 wk, Tumor Site: Type of Lesion: BLOOD VESSELS: Hemangiosarcoma and hemangioma (all doses). KIDNEY: Renal tubular cell adenoma and carcinoma (high dose o): active; positive (purity 99.3%; study details not given in source; neoplastic lesions co
- carcinogen call (Species: RAT, Strain/Sex: SWISS, Route: GAVAGE, Dose: 0, 30 MG/KG BW, 1/D FOR UP TO 22 MO, Tumor Site: Type of Lesion: INTESTINES: FIBROSARCOMA, BONE: OSTEOSARCOMA): active; positive
- carcinogen call (Species: Rat, Strain/Sex: Sprague-Dawley/Male (50/control and high-dose group and 40 per low-and mid-dose group), Route: Oral, Dose: 0, 250, 1,500, 7,500 ppm in feed for 104 wk, Dose: 0, 250, 1,500, 7,500 ppm in feed for 104 wk, Tumor Site: Type of Lesion: URINARY BLADDER: papilloma and carcinoma at highest dose. KIDNEY: one transitional cell carcinoma. LIVER: adenoma. THYRO): active; positive at the high dose level (purity 99%; study details not given in source)

Compound: CC(O)CN(C)c1ccc(NN)nn1 (stereo unspecified)
- carcinogen call (Species: MOUSE, Strain/Sex: B6C3F1/MALE,FEMALE, Route: ORAL, Dose: 100, 200, 400 PPM IN DRINKING WATER FOR 80 WK, Dose: 100, 200, 400 PPM IN DRINKING WATER FOR 80 WK): inactive; negative

Compound: OCCOCCO
- carcinogen call (Species: RAT, Strain/Sex: F344/FEMALE, Route: ORAL, Dose: 0, 1.25, 2.5% IN DRINKING WATER FOR 108 WK (STUDY DURATION: 108 WK), Dose: 0, 1.25, 2.5% IN DRINKING WATER FOR 108 WK (STUDY DURATION: 108 WK)): inactive; negative
- carcinogen call (Species: RAT, Strain/Sex: F344/MALE, Route: ORAL, Dose: 0, 1.25, 2.5% IN DRINKING WATER FOR 108 WK (STUDY DURATION: 108 WK), Dose: 0, 1.25, 2.5% IN DRINKING WATER FOR 108 WK (STUDY DURATION: 108 WK)): inactive; negative

Compound: N[C@H](CCC(=O)N[C@H](Cc1c[nH]c2ccccc12)C(=O)O)C(=O)O
- carcinogen call (Species: MOUSE, Strain/Sex: C57BL.CBA, Route: SC, Dose: 0.0145 AND 0.145 MG/KG 2X WK FOR 104 WK (STUDY DURATION: 104 WK)): inactive; negative
- carcinogen call (Species: RAT, Strain/Sex: WISTAR, Route: SC, Dose: 0.0145 AND 0.145 MG/KG 2X WK FOR 104 WK (STUDY DURATION: 104 WK)): inactive; negative
